# Test results taken from US20120232011A1, “Use of Rapamycin and Rapamycin Derivatives for the Treatment of Bone Loss” (priority 2003, published 2012).
# Read-outs that look alike come from different tables or passages of the source.
# Legend:
# [1] = tested on: bone-resorbing osteoclasts differentiated from non-adherent bone marrow mononuclear cells; assay: Mouse osteoclastogenesis assay (osteoclast formation and activity); assay type: cell-based
# Description: Non-adherent bone marrow mononuclear cells from 5-week-old male mice cells are differentiated into bone-resorbing osteoclasts by treatment with a cytokine cocktail containing receptor activator of NF kappa B ligand (RANKL), macrophage-colony stimulating factor (M-CSF) and interleukin-1 (IL-1) alpha. Osteoclast formation is measured after 6 days by quantifying the number of tartrate-resistant acid phosphatase (TRAP)-positive multinucleated cells generated in plastic wells on a 48-well plate. Osteoclast activity is measured after 12 days by quantifying the area of resorbed dentine slices placed in wells on a 48-well plate. Treatment with rapamycin or the rapamycin derivative, e.g. Compound A, starts at the beginning of cell culture, together with the cytokine treatment.
# [2] = tested on: mouse pre-osteoblastic cell line MC3T3-1b; assay: Osteoblast differentiation in MC3T3-1b cells (alkaline phosphatase staining); assay type: cell-based; conditions: MC3T3-1b cells with osteogenic stimulus (BMP-2, ascorbic acid, beta-glycerophosphate); read-out: Alkaline phosphatase (ALP) staining IC50
# Description: Osteoblast differentiation is evaluated in mouse pre-osteoblastic cell line MC3T3-1b, stimulated to differentiate with osteogenic stimulus (a mixture of bone morphogenetic protein 2 (BMP-2), ascorbic acid and beta-glycerophosphate). Osteoplast activity is measured by quantifying culture area covered with alkaline phosphate-positive cells on a 48-well plate. Treatment with rapamycin or the rapamycin derivative, e.g. Compound A, starts at the beginning of cell culture, together with the osteogenic stimulus treatment.
# [3] = tested on: bone-resorbing osteoclasts differentiated from peripheral blood mononuclear cells; assay: Human osteoclastogenesis assay; assay type: cell-based
# Description: Peripheral blood mononuclear cells from healthy male donors are differentiated into bone-resorbing osteoclasts by treatment with a cytokine cocktail containing RANKL, M-CSF and transforming growth factor (TGF)-beta 1. Osteoclast formation is measured after 17 days by quantifying the number of TRAP-positive multinucleated cells generated in plastic wells on a 96-well plate. Osteoclast activity is measured after 17 days by quantifying the area of resorbed bone on bovine cortical bone slices placed in wells on a 96-well plate. Treatment with rapamycin or the rapamycin derivative, e.g. Compound A, starts at the beginning of cell culture, together with the cytokine treatment. Collagen fragments are measured by enzyme linked immunosorbent assay (ELISA).
# [4] = tested on: osteoclast-specific protease cathepsin K; assay: Gene expression in human osteoclasts: cathepsin K; assay type: cell-based; conditions: human osteoclasts after treatment
# Description: (§1) A.3 Gene expression is analyzed according to a method known in the art, in human osteoclasts after treatment with rapamycin or a derivative thereof.
# [5] = tested on: Cdc2-related serine/threonine PFTAIREI; assay: Gene expression in human osteoclasts: PFTAIREI; assay type: cell-based; conditions: human osteoclasts after treatment
# Description: as §1
# [6] = tested on: cancellous bone loss after ovariectomy; assay: Ovariectomized rat model; assay type: in vivo
# Description: Before operation, the tibial bone mass and geometry of the animals is measured at baseline by dual-energy x-ray absorptiometry (DEXA) and periphere quantitative computer tomography (pQCT). Following ovariectomy (OVX) or sham operation, skeletally mature rats are treated for 8 weeks daily with 0.15 mg/kg, 0.5 mg/kg, 1.5 mg/kg, or 3.0 mg/kg of rapamycin or a rapamycin derivative, e.g. Compound A, or vehicle alone by oral administration or once a week with 1.5 mg/kg or 5.0 mg/kg of rapamycin or a rapamycin derivative; e.g. Compound A. At the beginning of the treatment, animals receive a fluorochrome label, e.g. calcein (e.g. 30 mg/kg, subcutaneous (s.c.)). Changes in bone mass and geometry (pQCT, DEXA) are evaluated in vivo after 4 weeks of treatment and at 8 weeks before necropsy. Body weight is monitored weekly. The animals are administered two further fluorochrome labels for marking of bone mineralization prior to necropsy, e.g. alizarin e.g. 20 mg/kg, s.c., 10 days prior to necropsy, and calcein e.g. 30 mg/kg, s.c., 3 days prior to necropsy. Blood samples (500 μl blood) are taken in heparin before necropsy and frozen at −20° C. for analysis of calcium, phosphate, TRAP, ALP, and osteocalcin. DEXA measurements are carried out at necropsy on excised tibia, femur, and lumbar vertebrae.
smiles,measurement,setting,value
"CO[C@H]1C[C@@H]2CC[C@@H](C)[C@@](O)(O2)C(=O)C(=O)N2CCCC[C@H]2C(=O)O[C@H]([C@H](C)C[C@@H]2CC[C@@H](OCCO)[C@H](OC)C2)CC(=O)[C@H](C)/C=C(\C)[C@@H](O)[C@@H](OC)C(=O)[C@H](C)C[C@H](C)/C=C/C=C/C=C/1C [Compound A, 40-O-(2-hydroxyethyl)-rapamycin]",IC50,"[1]; TRAP-positive multinucleated cells after 6 days, read-out: osteoclast formation IC50",10.5 ± 4.6 nM
same,IC50,"[1]; area of resorbed dentine slices after 12 days, read-out: osteoclast activity IC50",0.6 ± 0.3 nM
same,IC50,[2],13.5 ± 2.4 nM
same,IC50,"[3]; ELISA, read-out: Collagen fragment release IC50",4 ± 0.5 nM
same,IC50,"[3]; TRAP-positive multinucleated cells after 17 days, read-out: osteoclast formation IC50",7.7 ± 1.1 nM
same,IC50,"[3]; bovine cortical bone slices, 17 days, read-out: Resorbed area IC50",3.4 ± 0.3 nM
same,reduction of cathepsin K expression,[4],about 78%
same,increase of PFTAIREI expression,[5],about 300%
same,effect on trabecular number,[6],inhibits reduction of trabecular number
same,inhibition of cancellous bone loss,"[6]; 3 mg/kg/day, oral",60%
